Results published in patent US20240158392A1 (Janssen Biotech, Inc., priority 2021, published 2024).

What follows are compounds tested against SIK2 (Homo sapiens, UniProt Q9H0K1) (assay: SIK2 Enzymatic Assay High Version 2 (High ATP)). Conditions: not given.
Format: biochemical
Method in brief: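 At room temperature, enzyme (6 nM, 2× final) was preincubated with compound for 30 min, then 6 mM ATP and 400 μM HDAC5tide (both 2× final) were added for 2 h. ADP formed was measured by ADP-Glo Max (2 h reagent, 1 h detection) using luminescence.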

Chain of SIK2 (Q9H0K1 whole entry, species assumed): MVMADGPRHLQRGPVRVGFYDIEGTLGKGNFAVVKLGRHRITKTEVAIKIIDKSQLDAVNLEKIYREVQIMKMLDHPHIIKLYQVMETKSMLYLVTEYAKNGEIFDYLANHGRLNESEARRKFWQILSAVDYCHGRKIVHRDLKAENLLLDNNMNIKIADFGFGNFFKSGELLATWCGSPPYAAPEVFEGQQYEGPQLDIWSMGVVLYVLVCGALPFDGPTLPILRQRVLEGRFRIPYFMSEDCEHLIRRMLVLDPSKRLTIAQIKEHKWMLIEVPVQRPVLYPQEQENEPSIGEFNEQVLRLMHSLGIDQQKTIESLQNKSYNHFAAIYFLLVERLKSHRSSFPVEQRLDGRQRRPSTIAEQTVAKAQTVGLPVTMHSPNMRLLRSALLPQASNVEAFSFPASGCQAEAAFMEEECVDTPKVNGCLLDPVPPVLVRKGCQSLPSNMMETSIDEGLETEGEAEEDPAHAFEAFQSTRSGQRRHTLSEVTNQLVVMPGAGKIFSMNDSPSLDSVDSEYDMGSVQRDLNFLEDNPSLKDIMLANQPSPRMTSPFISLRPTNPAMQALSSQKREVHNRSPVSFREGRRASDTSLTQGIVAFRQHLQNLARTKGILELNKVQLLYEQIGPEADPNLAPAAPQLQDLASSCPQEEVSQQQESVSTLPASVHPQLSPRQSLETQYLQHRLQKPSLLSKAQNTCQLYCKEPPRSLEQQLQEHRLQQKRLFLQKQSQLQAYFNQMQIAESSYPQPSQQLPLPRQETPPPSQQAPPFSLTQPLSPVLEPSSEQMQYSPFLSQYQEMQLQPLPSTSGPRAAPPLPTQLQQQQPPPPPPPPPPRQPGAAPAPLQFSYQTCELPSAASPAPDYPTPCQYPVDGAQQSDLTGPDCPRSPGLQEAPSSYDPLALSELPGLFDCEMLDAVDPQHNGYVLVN

Point of comparison: `[2H]C([2H])([2H])N1CC[C@@H]1COc1cnc(C)cc1-c1ccn2nc(NC(=O)C3CC3)cc2c1` [Example 576, N-[5-[2-methyl-5-[[(2R)-1-(trideuteriomethyl)azetidin-2-yl]methoxy]-4-pyridyl]pyrazolo[1,5-a]pyridin-2-yl]cyclopropanecarboxamide], IC50 0.0728 µM. Against it:
- Cc1cc(Nc2cc3cc(-c4cc(Cl)ncc4O[C@@H]4[C@@H]5CO[C@H]4CN5)ccn3n2)nc(C)n1 [Example 495, 5-[2-chloro-5-[[(1S,4S,7R)-2-oxa-5-azabicyclo[2.2.1]heptan-7-yl]oxy]-4-pyridyl]-N-(2,6-dimethylpyrimidin-4-yl)pyrazolo[1,5-a]pyridin-2-amine] — 5.4-fold lower, 0.0134 µM
- Cc1cc(-c2ccn3nc(Nc4cc(C)nc(C)n4)cc3c2)c(OC[C@@H]2CN(C)C(=O)N2)cn1 [Example 365, (4S)-4-[[4-[2-[(2,6-dimethylpyrimidin-4-yl)amino]pyrazolo[1,5-a]pyridin-5-yl]-6-methyl-3-pyridyl]oxymethyl]-1-methyl-imidazolidin-2-one] — lower, < 0.000847 µM
- Cc1cc(-c2ccn3nc(Nc4ccnc(C)n4)cc3c2)c(O[C@H]2C[C@H]3COC[C@@H](C2)N3C)cn1 [Example 410, 5-[2-methyl-5-[[(1R,5S,7s)-9-methyl-3-oxa-9-azabicyclo[3.3.1]nonan-7-yl]oxy]-4-pyridyl]-N-(2-methylpyrimidin-4-yl)pyrazolo[1,5-a]pyridin-2-amine] — lower, < 0.000847 µM
- Cc1cc(-c2ccn3nc(NC(=O)C4CC4)cc3c2)c(OC[C@@H]2CCCN2C)cn1 [Example 572, N-[5-[2-methyl-5-[[(2S)-1-methylpyrrolidin-2-yl]methoxy]-4-pyridyl]pyrazolo[1,5-a]pyridin-2-yl]cyclopropanecarboxamide] — within 1.5-fold, 0.0787 µM
- Cc1cc(-c2ccn3nc(Nc4ccncn4)cc3c2)c(O[C@H]2C[C@H]3COC[C@@H](C2)N3)cn1 [Example 395, 5-[2-methyl-5-[[(1R,5S,7s)-3-oxa-9-azabicyclo[3.3.1]nonan-7-yl]oxy]-4-pyridyl]-N-pyrimidin-4-yl-pyrazolo[1,5-a]pyridin-2-amine] — 86-fold lower, 0.000851 µM

Same assay, conditions: enzyme 6 nM, 6 mM ATP and 400 μM HDAC5tide (each 2× final concentration); 30 minutes pre-incubation, 2 hours; ADP-Glo Max luminescence; read-out: SIK2 high ATP IC50 (μM) (Test Example 2)

Point of comparison: `O=C(Nc1cc2cc(-c3cc(C(F)(F)F)ncc3OC[C@@H]3CNCCO3)ccn2n1)C1CC1` [Example 601, N-[5-[5-[[(2S)-morpholin-2-yl]methoxy]-2-(trifluoromethyl)-4-pyridyl]pyrazolo[1,5-a]pyridin-2-yl]cyclopropanecarboxamide], IC50 0.116 µM. Against it:
- CC(C)(C#N)COc1cnc(OCC#N)cc1-c1ccn2nc(NC(=O)C3CC3)cc2c1 [Example 724, N-[5-[2-(cyanomethoxy)-5-(2-cyano-2-methyl-propoxy)-4-pyridyl]pyrazolo[1,5-a]pyridin-2-yl]cyclopropanecarboxamide] — 7.5-fold lower, 0.0155 µM
- C[C@@H](C#N)Oc1cc(-c2ccn3nc(NC(=O)C4CC4)cc3c2)c(OCC(C)(C)C#N)cn1 (single isomer, unassigned) [Example 726, (*S)—N-[5-[2-(1-cyanoethoxy)-5-(2-cyano-2-methyl-propoxy)-4-pyridyl]pyrazolo[1,5-a]pyridin-2-yl]cyclopropanecarboxamide] — 46-fold lower, 0.00251 µM
- Cc1cc(-c2ccn3nc(NC(=O)C4CC4)cc3c2)c(OCC2(O)CCC(F)(F)CC2)cn1 (racemic) [Example 188, rac-N-[5-[5-[(4,4-difluoro-1-hydroxy-cyclohexyl)methoxy]-2-methyl-4-pyridyl]pyrazolo[1,5-a]pyridin-2-yl]cyclopropanecarboxamide] — 2.4-fold lower, 0.0478 µM
- Cc1cc(-c2ccn3nc(Nc4ccc(C5CC5)nn4)cc3c2)c(OC[C@@]23CN[C@@H](CO2)C3)cn1 [Example 255, N-(6-cyclopropylpyridazin-3-yl)-5-[2-methyl-5-[[(1R,4R)-5-oxa-2-azabicyclo[2.2.1]heptan-4-yl]methoxy]-4-pyridyl]pyrazolo[1,5-a]pyridin-2-amine] — 16-fold lower, 0.00704 µM
- CC(C)(C#N)COc1cnc(OC(F)F)cc1-c1ccn2nc(Nc3cncc(N)n3)cc2c1 [Example 691, 3-[[4-[2-[(6-aminopyrazin-2-yl)amino]pyrazolo[1,5-a]pyridin-5-yl]-6-(difluoromethoxy)-3-pyridyl]oxy]-2,2-dimethyl-propanenitrile] — 120-fold lower, 0.001 µM
- Cn1cnc(Nc2cc3cc(-c4cc(OC(F)F)ncc4OCC(C)(C)C#N)ccn3n2)n1 [Example 699, 3-[[6-(difluoromethoxy)-4-[2-[(1-methyl-1,2,4-triazol-3-yl)amino]pyrazolo[1,5-a]pyridin-5-yl]-3-pyridyl]oxy]-2,2-dimethyl-propanenitrile] — 10-fold lower, 0.0111 µM
- COCc1nc(C)cc(Nc2cc3cc(-c4cc(C)ncc4O[C@H]4CC[C@H](O)CC4)ccn3n2)n1 [Example 225, (1r,4r)-4-((4-(2-((2-(methoxymethyl)-6-methylpyrimidin-4-yl)amino)pyrazolo[1,5-a]pyridin-5-yl)-6-methylpyridin-3-yl)oxy)cyclohexan-1-ol] — 34-fold lower, 0.00343 µM
- Cc1cc(-c2ccn3nc(Nc4cc(C)nc(C)n4)cc3c2)c(OC[C@@H]2COC3(CCCC3)O2)cn1 (single isomer, unassigned) [Example 543, (*R)—N-(2,6-dimethylpyrimidin-4-yl)-5-[5-(6,9-dioxaspiro[4.4]nonan-8-ylmethoxy)-2-methyl-4-pyridyl]pyrazolo[1,5-a]pyridin-2-amine] — 7.2-fold lower, 0.016 µM
- Cc1cc(-c2ccn3nc(NC(=O)C4CC4)cc3c2)c(OCC2(F)CCN(C)C2)cn1 (single isomer, unassigned) [Example 449, *R—N-[5-[5-[(3-fluoro-1-methyl-pyrrolidin-3-yl)methoxy]-2-methyl-4-pyridyl]pyrazolo[1,5-a]pyridin-2-yl]cyclopropanecarboxamide] — 2.5-fold lower, 0.0472 µM
- Cc1cc(-c2ccn3nc(Nc4cncc(C)n4)cc3c2)c(OC[C@H]2OCC[C@@H]2O)cn1 [Example 297, (2R,3S)-2-[[6-methyl-4-[2-[(6-methylpyrazin-2-yl)amino]pyrazolo[1,5-a]pyridin-5-yl]-3-pyridyl]oxymethyl]tetrahydrofuran-3-ol] — 15-fold lower, 0.00781 µM
- Cc1cc(-c2ccn3nc(Nc4cc(C(F)(F)F)c(C(=O)NCC(F)(F)F)cn4)cc3c2)c(OCC(C)(C)O)cn1 [Example 651, 6-[[5-[5-(2-hydroxy-2-methyl-propoxy)-2-methyl-4-pyridyl]pyrazolo[1,5-a]pyridin-2-yl]amino]-N-(2,2,2-trifluoroethyl)-4-(trifluoromethyl)pyridine-3-carboxamide] — 1.7-fold higher, 0.194 µM
- CC(C)(C#N)COc1cnc(OCC(F)F)cc1-c1ccn2nc(Nc3cccnn3)cc2c1 [Example 688, 3-[[6-(2,2-difluoroethoxy)-4-[2-(pyridazin-3-ylamino)pyrazolo[1,5-a]pyridin-5-yl]-3-pyridyl]oxy]-2,2-dimethyl-propanenitrile] — 96-fold lower, 0.00121 µM
- Cc1cc(-c2ccn3nc(Nc4cc(C)nc(C)n4)cc3c2)c(OCC2(C#N)CC2)cn1 [Example 560, 1-[[4-[2-[(2,6-dimethylpyrimidin-4-yl)amino]pyrazolo[1,5-a]pyridin-5-yl]-6-methyl-3-pyridyl]oxymethyl]cyclopropanecarbonitrile] — 1.9-fold lower, 0.0616 µM
- Cc1cc(-c2ccn3nc(Nc4cc(C)nc(C)n4)cc3c2)c(OCC2CC(=O)N(C)C2(C)C)cn1 (racemic) [Example 325, (rac)-4-[[4-[2-[(2,6-dimethylpyrimidin-4-yl)amino]pyrazolo[1,5-a]pyridin-5-yl]-6-methyl-3-pyridyl]oxymethyl]-1,5,5-trimethyl-pyrrolidin-2-one] — 44-fold lower, 0.00265 µM
- Cc1cc(-c2ccn3nc(Nc4cc(C)nc(C)n4)cc3c2)c(OCCN)cn1 [Example 557, 5-[5-(2-aminoethoxy)-2-methyl-4-pyridyl]-N-(2,6-dimethylpyrimidin-4-yl)pyrazolo[1,5-a]pyridin-2-amine] — 2.3-fold lower, 0.0494 µM
- Cc1cc(-c2ccn3nc(Nc4cc(C)nc(C)n4)cc3c2)c(OC2CCC(S(C)(=O)=O)CC2)cn1 (stereo not shown) [Example 551, N-(2,6-dimethylpyrimidin-4-yl)-5-[2-methyl-5-(4-methylsulfonylcyclohexoxy)-4-pyridyl]pyrazolo[1,5-a]pyridin-2-amine] — 14-fold lower, 0.00832 µM
- CC(C)(C#N)COc1cnc(OC(F)F)cc1-c1ccn2nc(Nc3ccnc(N)n3)cc2c1 [Example 705, 3-[[4-[2-[(2-aminopyrimidin-4-yl)amino]pyrazolo[1,5-a]pyridin-5-yl]-6-(difluoromethoxy)-3-pyridyl]oxy]-2,2-dimethyl-propanenitrile] — 3.8-fold lower, 0.0306 µM
- CC(C)(C#N)COc1cnc(OC(F)F)cc1-c1ccn2nc(Nc3cc4c(cn3)CCNC4)cc2c1 [Example 718, 3-[[6-(difluoromethoxy)-4-[2-(5,6,7,8-tetrahydro-2,6-naphthyridin-3-ylamino)pyrazolo[1,5-a]pyridin-5-yl]-3-pyridyl]oxy]-2,2-dimethyl-propanenitrile] — 6.4-fold lower, 0.0182 µM
- CNc1nc(C)cc(Nc2cc3cc(-c4cc(OCC(F)F)ncc4OCC(C)(C)C#N)ccn3n2)n1 [Example 725, 3-[[6-(2,2-difluoroethoxy)-4-[2-[[6-methyl-2-(methylamino)pyrimidin-4-yl]amino]pyrazolo[1,5-a]pyridin-5-yl]-3-pyridyl]oxy]-2,2-dimethyl-propanenitrile] — 29-fold lower, 0.00405 µM
- Cc1cc(-c2ccn3nc(Nc4cc(C)nc(C5CC5)n4)cc3c2)c(OCC(C)(C)O)cn1 [Example 229, 1-[[4-[2-[(2-cyclopropyl-6-methyl-pyrimidin-4-yl)amino]pyrazolo[1,5-a]pyridin-5-yl]-6-methyl-3-pyridyl]oxy]-2-methyl-propan-2-ol] — 20-fold lower, 0.00587 µM
- CC(C)(C#N)COc1cnc(OC(F)F)cc1-c1ccn2nc(Nc3cc(N)cnn3)cc2c1 [Example 704, 3-[[4-[2-[(5-aminopyridazin-3-yl)amino]pyrazolo[1,5-a]pyridin-5-yl]-6-(difluoromethoxy)-3-pyridyl]oxy]-2,2-dimethyl-propanenitrile] — 5.6-fold lower, 0.0206 µM
